# In patent publication US11230545B2, “Heterocyclic compound” (Takeda Pharmaceutical Company Limited, priority 2018, dated 2022):
# How the values were obtained:
# recombinant human MALT1 = target: T1, recombinant human MALT1 (Homo sapiens, UniProt Q9UDY8); assay: Measurement of MALT1 enzyme inhibitory activity; type: biochemical; conditions: read-out: MALT1 enzyme inhibition rate (%) at 3 μM compound
# T1 construct: to form a human MALT1 (340-789aa) dimer; His tag (from pET28a, N-terminal) (N); yeast GCN4 leucine zipper (251-281aa), fusion partner for dimerisation (N); translates to GSGSGS), between GCN4 zipper and MALT1 (N); His tag (C-terminal) (C); made in house; host or cells: E. coli BL21 (DE3)
# T1 sequence (Q9UDY8 340-789): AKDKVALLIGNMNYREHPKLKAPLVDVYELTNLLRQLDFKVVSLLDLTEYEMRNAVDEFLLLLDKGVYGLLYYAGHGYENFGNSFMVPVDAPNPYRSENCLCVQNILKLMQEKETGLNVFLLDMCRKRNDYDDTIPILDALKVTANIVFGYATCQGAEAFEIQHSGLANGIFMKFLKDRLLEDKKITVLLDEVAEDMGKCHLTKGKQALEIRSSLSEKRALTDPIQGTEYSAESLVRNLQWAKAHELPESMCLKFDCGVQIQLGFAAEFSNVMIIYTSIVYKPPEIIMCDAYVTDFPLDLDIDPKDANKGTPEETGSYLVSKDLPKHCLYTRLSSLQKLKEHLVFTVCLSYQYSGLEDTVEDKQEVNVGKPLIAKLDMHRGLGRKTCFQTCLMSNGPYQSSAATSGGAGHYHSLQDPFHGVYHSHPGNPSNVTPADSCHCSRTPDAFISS
# T1 sequence (P03069 251-281 partner limits assumed): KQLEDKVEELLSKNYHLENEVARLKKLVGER
# Procedure: On the human MALT1 gene, PCR was carried out using GC-030-[…] (pENTR221/MALT1, GeneCopoeia) as a template with primers having BamH I restriction enzyme at the N-terminal and Not I restriction enzyme at the C-terminal to form a human MALT1 (340-789aa) dimer. […] Both of the obtained fragments were treated with the restriction enzymes, and inserted between Nde I and Not I of a pET28a (Novagen) vector to yield a recombinant human MALT1 protein expression vector pET28a/His-LZ-hMALT1v1 (340-789)-His. The recombinant human MALT1 protein was prepared by transforming the expression plasmid prepared as above with ECOS Competent E. coli BL21 (DE3) (Nippon Gene Co., Ltd.). Escherichia coli obtained by transformation was inoculated into 300 mL of LB medium (1% tryptone, 0.5% yeast extract, 0.5% sodium chloride, 0.01% ampicillin) and cultured at 30° C. for 16 hours. […] Furthermore, culturing was carried out for 16 hours to induce expression of human MALT1 protein. After completion of the culture, the culture solution was centrifuged at 5,000 rpm for 10 minutes. […] This crushed liquid was centrifuged (15,300×G, 30 min, TOMY MX-301), and the obtained supernatant was passed through and adsorbed to a Ni-NTA Superflow (QIAGEN) column previously equilibrated with 50 mM Tris-HCl pH 8.0, 300 mM NaCl, 5 mM DTT and 10% glycerol, followed by elution in a buffer containing 50 mM Tris-HCl pH 8.0, 300 mM NaCl, 5 mM DTT, 10% glycerol and 250 mM imidazole. […] The prepared protein was stored at -30° C., and the protein concentration was measured with a BCA Protein Assay Kit (PIERCE) using BSA as a standard. […] Subsequently, 2 μL of a purified recombinant human MALT1 enzyme solution was added, followed by incubation for 60 minutes at room temperature. To the mixture were added 2 μL of a substrate solution (75 μM Ac-LRSR-AFC (SM Biochemicals), 20 mM HEPES (Dojin Laboratories), 10 mM KCl (Wako Pure Chemical Industries, Ltd.), 1.5 mM MgCl2 (Sigma-Aldrich), 1 mM EDTA (pH 8.0) (Nippon Gene Co., Ltd.), 0.01% Triton X-100 (Sigma-Aldrich) and 1 mM DTT (Wako Pure Chemical Industries, Ltd.), followed by incubation for 60 minutes at room temperature. The fluorescence values of excitation 400 nm and emission 485 nm immediately after substrate addition and after enzymatic reaction were measured with a plate reader Envision (PerkinElmer), and the fluorescence values increased by enzymatic reaction were used for calculation of the inhibition rate (%).
# OCI-Ly3 cells = assay: Measurement of growth inhibitory activity using OCI-Ly3 cells; type: cell-based; conditions: Homo sapiens, 144 h, 3 μm compound, 6 days, read-out: Cell growth inhibition rate (%) at 3 μm compound
# Procedure: OCI-Ly3 cells were seeded in a cell culture medium IMDM (Fujifilm Wako Pure Chemical Corporation) containing 20% FCS (fetal calf serum, Thermo Fisher Scientific) and monothioglycerol (Fujifilm Wako Pure Chemical Corporation) so as to be at 1.25×10^3 cells/well on a 96-well plate. Cell Titer-Glo solution (Promega) was added to cells to which the test compound had not been added, followed by stirring at room temperature for 15 minutes. Subsequently, the luminescence value was measured with Envision (PerkinElmer) on the day of seeding. Cells to which the test compound dissolved in dimethyl sulfoxide (Fujifilm Wako Pure Chemical Corporation) had been added were allowed to stand in a CO2 incubator (37° C.) for 6 days. Subsequently, the luminescence value was measured in the same manner. The inhibition rate (%) of the test compound on OCI-Ly3 cell growth was calculated by the following formula. Cell growth inhibition rate (%)=(1−(Luminescent value on day 6 of test compound treatment−Luminescent value before test compound treatment)/(Luminescent value on day 6 without compound addition−Luminescent value before compound treatment))×100
SMILES,inhibition at 3 µM (recombinant human MALT1) [%],inhibition at 3 µM (OCI-Ly3 cells) [%]
"CO[C@@H](C)c1c(NC(=O)Nc2cnc(OC(F)F)c(C#N)c2)cnn2cc(C)nc12 [Example 5, (S)—N-(5-Cyano-6-(difluoromethoxy)pyridin-3-yl)-N′-(8-(1-methoxyethyl)-2-methylimidazo[1,2-b]pyridazin-7-yl)urea]",99,93
"CO[C@@H](C)c1c(NC(=O)Nc2cnc(-n3nccn3)c(C(F)(F)F)c2)cnn2cc(C)nc12 [Example 6, (S)—N-(8-(1-Methoxyethyl)-2-methylimidazo[1,2-b]pyridazin-7-yl)-N′-(6-(2H-1,2,3-triazol-2-yl)-5-(trifluoromethyl)pyridin-3-yl)urea]",108,99
"COC(C)(C)c1c(NC(=O)Nc2cnc(-n3nccn3)c(Cl)c2)cnn2cc(C)nc12 [Example 7, N-(5-Chloro-6-(2H-1,2,3-triazol-2-yl)pyridin-3-yl)-N′-(8-(2-methoxypropan-2-yl)-2-methylimidazo[1,2-b]pyridazin-7-yl)urea]",98,95
"CC(C)c1c(NC(=O)Nc2cnc(OC(F)F)c(Cl)c2)cnn2cc(Cl)nc12 [Example 8, N-(5-Chloro-6-(difluoromethoxy)pyridin-3-yl)-N′-(2-chloro-8-(propan-2-yl)imidazo[1,2-b]pyridazin-7-yl)urea]",94,–
"Cc1cn2ncc(NC(=O)Nc3cnc(-n4nccn4)c(Cl)c3)c(C(C)C)c2n1 [Example 9, N-(5-Chloro-6-(2H-1,2,3-triazol-2-yl)pyridin-3-yl)-N′-(2-methyl-8-(propan-2-yl)imidazo[1,2-b]pyridazin-7-yl)urea]",99,99
"CO[C@@H](C)c1c(NC(=O)Nc2cc(C(F)(F)F)c(-n3nccn3)nc2C)cnn2cc(C)nc12 [Example 22, (S)-N-(8-(1-Methoxyethyl)-2-methylimidazo[1,2-b]pyridazin-7-yl)-N′-(2-methyl-6-(2H-1,2,3-triazol-2-yl)-5-(trifluoromethyl)pyridin-3-yl)urea]",104,102
"CO[C@@H](C)c1c(NC(=O)Nc2cnc(-n3nccn3)c(C(F)F)c2)cnn2cc(C)nc12 [Example 31, (S)-N-(5-(Difluoromethyl)-6-(2H-1,2,3-triazol-2-yl)pyridin-3-yl)-N′-(8-(1-methoxyethyl)-2-methylimidazo[1,2-b]pyridazin-7-yl)urea]",103,96
"CO[C@@H](C)c1c(NC(=O)Nc2cnc(OC(F)F)c(Br)c2)cnn2cc(C)nc12 [Example 35, (S)-N-(5-Bromo-6-(difluoromethoxy)pyridin-3-yl)-N′-(8-(1-methoxyethyl)-2-methylimidazo[1,2-b]pyridazin-7-yl)urea]",105,95
"COCc1cnn(-c2ncc(NC(=O)Nc3cnn4cc(C)nc4c3[C@H](C)OC)cc2Cl)n1 [Example 36, (S)-N-[5-Chloro-6-(4-(methoxymethyl)-2H-1,2,3-triazol-2-yl)pyridin-3-yl)-N′-(8-(1-methoxyethyl)-2-methylimidazo[1,2-b]pyridazin-7-yl)urea]",101,96
"COC(C)c1c(NC(=O)Nc2cnc(OC(F)F)c(Cl)c2)cnc2ccc(Cl)nc12 (stereo not drawn) [Example 59, N-(5-Chloro-6-(difluoromethoxy)pyridin-3-yl)-N′-(6-chloro-4-(1-methoxyethyl)-1,5-naphthyridin-3-yl)urea]",95,98
"CO[C@@H](C)c1c(NC(=O)Nc2cc(C(F)(F)F)c(-n3nccn3)nc2C)cnc2ccc(Cl)nc12 [Example 66, (S)-N-(6-Chloro-4-(1-methoxyethyl)-1,5-naphthyridin-3-yl)-N′-(2-methyl-6-(2H-1,2,3-triazol-2-yl)-5-(trifluoromethyl)pyridin-3-yl)urea]",99,100
"COC(C)c1c(NC(=O)Nc2cnc(-n3nccn3)c(Cl)c2)cnn2cc(Cl)nc12 (stereo not drawn) [Example 133, N-(2-Chloro-8-(1-methoxyethyl)imidazo[1,2-b]pyridazin-7-yl)-N′-(5-chloro-6-(2H-1,2,3-triazol-2-yl)pyridin-3-yl)urea]",99,98
"CC(c1c(NC(=O)Nc2cnc(OC(F)F)c(Cl)c2)cnn2cc(Cl)nc12)C(F)(F)F (stereo not drawn) [Example 173, N-(5-Chloro-6-(difluoromethoxy)pyridin-3-yl)-N′-(2-chloro-8-(1,1,1-trifluoropropan-2-yl)imidazo[1,2-b]pyridazin-7-yl)urea]",99,85
"COc1nccc2ncc(NC(=O)Nc3cnc(-n4nccn4)c(C(F)(F)F)c3)c(C(C)OC)c12 (stereo not drawn) [Example 255, N-(5-Methoxy-4-(1-methoxyethyl)-1,6-naphthyridin-3-yl)-N'-(6-(2H-1,2,3-triazol-2-yl)-5-(trifluoromethyl)pyridin-3-yl)urea]",97,99
"COC(C)c1c(NC(=O)Nc2cnc(-n3nccn3)c(C(F)(F)F)c2)cnc2ccnc(C)c12 (stereo not drawn) [Example 261, N-(4-(1-Methoxyethyl)-5-methyl-1,6-naphthyridin-3-yl)-N'-(6-(2H-1,2,3-triazol-2-yl)-5-(trifluoromethyl)pyridin-3-yl)urea]",98,88
"COC(C)c1c(NC(=O)Nc2cnc(-n3nccn3)c(C(F)(F)F)c2)cnc2ccc(=O)n(C)c12 (stereo not drawn) [Example 269, N-(4-(1-Methoxyethyl)-5-methyl-6-oxo-5,6-dihydro-1,5-naphthyridin-3-yl)-N'-(6-(2H-1,2,3-triazol-2-yl)-5-(trifluoromethyl)pyridin-3-yl)urea]",99,95
"COc1ncc(NC(=O)Nc2cnc3ccn(C)c(=O)c3c2C(C)OC)cc1Cl (stereo not drawn) [Example 270, N-(5-Chloro-6-methoxypyridin-3-yl)-N'-(4-(1-methoxyethyl)-6-methyl-5-oxo-5,6-dihydro-1,6-naphthyridin-3-yl)urea]",94,40
